From ChEMBL document CHEMBL6074641, “Polypharmacological Drug Design Guided by Integrating Phenotypic and Restricted Fragment Docking Strategies” (J Med Chem, 2024) come the findings set out here.

The source made the active and inactive calls. No cut-off for these calls is given here.

For experiment [1], the system named is BV-2. The experiment in a line: Synergistic anti-necroptosis activity in LPS/zVAD stimulated mouse BV-2 cells at 100 nM preincubated with LPS for 11 hrs followed by compound addition for 1 hr and exposed to zVAD-fmk for another 24 hrs in presence of PF-06260933 and crizotinib by Cellcounting-Lite 2.0 luminescent cell viability assay. The class given is functional, cell-based. The settings on record: time 25.0 hrs.

Experiment [2] has as its system BV-2. The experiment in a line: Anti-necroptosis activity in LPS/zVAD stimulated mouse BV-2 cells assessed as inhibition of p65 activation at 100 nM in presence of PF-06260933 and crizotinib. The class given is functional. Also noted: scale not given: the % may be the effect or the level left.
The subject of experiment [3] is BV-2. Put plainly: Anti-necroptosis activity in LPS/zVAD stimulated mouse BV-2 cells assessed as inhibition of p65 nuclear translocation at 100 nM. The class given is functional, cell-based.
The subject of experiment [4] is Mus musculus. The experiment in a line: Anti-alzheimer activity against 5 month old APP/PS1 transgenic mouse model assessed as decrease in anxiety level at 10 mg/kg, po administered 4 times per week for 4 weeks. It counts as functional, organism-based.
Experiment [5] relates to BV-2. Put plainly: Anti-necroptosis activity in LPS/zVAD stimulated mouse BV-2 cells assessed as inhibition of extranuclear p65 at 100 nM. The class given is functional, cell-based.
The subject of experiment [6] is BV-2. The experiment in a line: Anti-inflammatory activity against LPS/zVAD treated mouse BV-2 cells assessed as decrease in IL-1beta release at 100 nM in presence of PF-06260933 and crizotinib by ELISA. It counts as functional, cell-based.
Experiment [7] has as its system BV-2. Put plainly: Anti-inflammatory activity against LPS/zVAD treated mouse BV-2 cells assessed as decrease in TNFalpha release at 100 nM in presence of PF-06260933 and crizotinib by ELISA. It counts as functional, cell-based. A general note: An ELISA detects its analyte on a solid surface through an enzyme-linked reagent.
Experiment [8] deals with Mus musculus. Put plainly: Anti-alzheimer activity against 5 month old APP/PS1 transgenic mouse model assessed as decrease in restlessness at 10 mg/kg, po administered 4 times per week for 4 weeks. The class given is functional, organism-based.
Experiment [9] deals with BV-2. The experiment in a line: Synergistic anti-necroptosis activity in LPS/zVAD stimulated mouse BV-2 cells at 100 nM preincubated with LPS for 11 hrs followed by compound addition for 1 hr and exposed to zVAD-fmk for another 24 hrs in presence of PF-06260933 and TAE684 by Cellcounting-Lite 2.0 luminescent cell viability assay. As to conditions: time 25.0 hrs. The class given is functional, cell-based.

For experiment [10], the system named is Mus musculus. The experiment in a line: Anti-alzheimer activity against 8 month old 3xTg mouse model assessed as decrease in restlessness at 10 mg/kg, po administered 4 times per week for 4 weeks. The class given is functional, organism-based.
For experiment [11], the system named is BV-2. The experiment in a line: Downregulation of p-RIPK1 expression in mouse BV-2 cells at 100 nM in presence of PF-06260933 and crizotinib by Western blotting analysis. It counts as functional, cell-based.
Experiment [12] concerns BV-2. Put plainly: Anti-necroptosis activity in LPS/zVAD stimulated mouse BV-2 cells assessed as inhibition of p65 nuclear translocation at 100 nM in presence of PF-06260933 and crizotinib. It counts as functional. Further details: scale not given: the % may be the effect or the level left.
In experiment [13] the test system is BV-2. Put plainly: Synergistic anti-necroptosis activity in LPS/zVAD stimulated mouse BV-2 cells at 100 nM preincubated with LPS for 11 hrs followed by compound addition for 1 hr and exposed to zVAD-fmk for another 24 hrs in presence of PF-06260933 and entrectinib by Cellcounting-Lite 2.0 luminescent cell viability assay. The settings on record: time 25.0 hrs. It counts as functional, cell-based.

The subject of experiment [14] is BV-2. The experiment in a line: Synergistic anti-necroptosis activity in LPS/zVAD stimulated mouse BV-2 cells at 100 nM preincubated with LPS for 11 hrs followed by compound addition for 1 hr and exposed to zVAD-fmk for another 24 hrs in presence of PF-06260933 and LDK378 by Cellcounting-Lite 2.0 luminescent cell viability assay. It counts as functional, cell-based. The settings on record: time 25.0 hrs.

In experiment [15] the test system is Mus musculus. The experiment in a line: Anti-alzheimer activity against 8 month old 3xTg mouse model assessed as decrease in anxiety level at 10 mg/kg, po administered 4 times per week for 4 weeks. The class given is functional, organism-based.
The subject of experiment [16] is BV-2. Put plainly: Downregulation of p-MLKL expression in mouse BV-2 cells at 100 nM in presence of PF-06260933 and crizotinib by Western blotting analysis. It counts as functional, cell-based. In general terms: In western blotting, separated proteins are transferred to a membrane and probed.
For experiment [17], the system named is BV-2. The experiment in a line: Synergistic anti-necroptosis activity in LPS/zVAD stimulated mouse BV-2 cells preincubated with LPS for 11 hrs followed by compound addition for 1 hr and exposed to zVAD-fmk for another 24 hrs in presence of crizotinib by Cellcounting-Lite 2.0 luminescent cell viability assay. As to conditions: time 25.0 hrs. The class given is functional, cell-based.

Take `CN1C(=O)C(Cc2c[nH]c3ccccc23)NC1=S` (configuration not stated) [NECROSTATIN]: the result in the experiment with BV-2 [1], with BV-2 [3], in the experiment with Mus musculus [4], in the experiment with BV-2 [6], in the experiment with BV-2 [7] and in the experiment on Mus musculus [8] was Active. The outcome in the experiment on BV-2 [9], with Mus musculus [10], with BV-2 [11], with BV-2 [13], in the experiment with BV-2 [14] and in the experiment with Mus musculus [15] was Active. The outcome in the experiment on BV-2 [16] was Active. The Activity in the experiment with BV-2 [2] and in the experiment with BV-2 [12] was 100% each time. In addition, the outcome in the experiment on BV-2 [5] and in the experiment on BV-2 [17] was inactive.
